Series [1] in a line: Phase 1 dose-escalation study: safety. It counts as in vivo. The note with it: 200 mg, 400 mg, 800 mg, and 1200 mg QD, human patients, fed state. The text has this: This is a first-in-human (FIH), single-arm, dose-escalation and expansion study to evaluate the safety, tolerability, PK, pharmacodynamics, and preliminary antitumor activity of Compound A administered orally in patients with advanced solid tumors and urothelial carcinoma. Subject enrollment and continuous safety assessment will be guided by a mTPI-2 design (Guo, 2017). Decisions for dose escalation and de-escalation will be made by a Safety Review Committee (SRC) comprised of the enrolling study Investigators and the Sponsor. To assess evidence of preliminary antitumor activity, a Simon 2-stage design (Simon, 1989) is used.
Toxicity is evaluated according to National Cancer Institute Common Terminology Criteria for Adverse Events (AEs) (NCI-CTCAE) v5.0. DLT events are defined herein. AEs will be assessed, and laboratory values (chemistry, hematology, coagulation, thyroid function and urinalysis as specified herein), vital signs, and 12-lead triplicate electrocardiograms (ECGs) are obtained to evaluate the safety and tolerability of Compound A.
A modified Toxicity Probability Interval (mTPI-2) design (Guo, 2017) with a target DLT rate of approximately 30% is applied for dose escalation and confirmation to determine the Compound A RP2D. Several dose levels of Compound A, planned from 200 mg QD to 1600 mg daily, are explored. […]

The nature of series [2]: Nonclinical safety studies incl. 28-day GLP study in monkeys. It counts as in vivo. The text has this:
The nonclinical safety of Compound A has been evaluated in a series of pharmacological, single-dose and repeated-dose toxicological studies in rodent and non-rodent species including 28-day Good Laboratory Practice (GLP) studies in rat and monkeys. […] All changes were resolved or resolving after 2 weeks of dosing cessation, except for the testicular changes in rats. The nonclinical safety assessment from these studies supports clinical evaluation of Compound A in humans. The initial planned dose of Compound A for this study is 200 mg once daily (QD), based on evaluation of the Compound A nonclinical safety data.
During dose escalation, a minimum of 3 patients are required at each dose. Depending on accrual rate and occurrence of DLTs, 3, 4, 5, or 6 patients may be enrolled at each new dose until the last of those patients completes the 21-day DLT assessment period. Based on the mTPI-2 design, the number of patients who are enrolled at a dose but are not yet fully evaluable for DLT assessment may not exceed the number of remaining patients who are at risk of developing a DLT before the dose would be considered unacceptably toxic. In general, 3 to 14 patients can be enrolled at a given dose level. Administration of Compound A to the first 2 patients in each new dose cohort is staggered by a minimum of 15 hours.

The next series deals with AHR. The series is described as follows: AHR activity in human and rodent cell lines (summary). It counts as cell-based. The text has this:
Compound A is a selective AHR antagonist being developed as an orally administered therapeutic. […] Compound A inhibits CYP1A1 and interleukin (IL)-22 gene expression and leads to an increase in pro-inflammatory cytokines, such as IL-2 and IL-9.

Molecules are shown by their SMILES. Entries after “also recorded” stand apart in the source; their conditions may differ.

These results are taken from US20230026232A1, “AHR INHIBITORS AND USES THEREOF” (Ikena Oncology, Inc., priority 2019, published 2023).

Consider `CC(C)c1cnn2c(N[C@@H]3CCc4[nH]c5ccccc5c4C3)nc(-c3cncc(F)c3)nc12` [Compound A, (R)—N-(2-(5-fluoropyridin-3-yl)-8-isopropylpyrazolo[1,5-a][1,3,5]triazin-4-yl)-2,3,4,9-tetrahydro-1H-carbazol-3-amine], for which the “serious adverse events (SAEs)” value in series [1] is “without any drug-related serious adverse events; also recorded: no serious adverse events”. For the same compound, the “noteworthy findings in nonclinical safety studies” value in series [2] (monkey) is “decreased thymus weights and cortical lymphocytes”. In series [2] (monkey, primates, plasma, read-out: AUC where QTc increases are noted), the AUC was determined as 188 µg·h/mL. For the same compound, the Cmax in series [2] (monkey, primates, plasma, read-out: Cmax where QTc increases are noted) was 11200 ng/mL. Moreover, the QTc prolongation result in series [2] (monkeys) is listed as “up to 11%”. Also, in the series on AHR, the IC50 was 35 to 150 nM.
